The record followed here is patent publication US20260132129A1 (Genesis Therapeutics, Inc., priority 2022, published 2026).

Each structure is given as a SMILES string.

The assay addresses T1, PI3Kα H1047R (T47D cells) (Homo sapiens, UniProt P42336, H1047R).
T1 construct: endogenous in cells; host or cells: T47D cells
The assay is described as follows: PI3Kα cellular assay: pAKT HTRF in T47D cells after EGF stimulation. In kind it is cell-based. To be noted: for IC50: T47D cells (PI3Kα H1047R), pAKT S473 HTRF, 1 hr compound, 20 ng/ml EGF 10 min. The procedure, abridged:
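T47D cells (PIK3CA H1047R) serum-starved 16 h, then treated 1 h at 37 °C with compound (10,000 nM top, 3-fold steps to 0.5 nM). After 10 min stimulation with 20 ng/mL EGF, cells were lysed and pAKT measured by HTRF.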
(In TR-FRET formats the signal depends on donor and acceptor labels being close together.)

T1 sequence (P42336 whole entry H1047R): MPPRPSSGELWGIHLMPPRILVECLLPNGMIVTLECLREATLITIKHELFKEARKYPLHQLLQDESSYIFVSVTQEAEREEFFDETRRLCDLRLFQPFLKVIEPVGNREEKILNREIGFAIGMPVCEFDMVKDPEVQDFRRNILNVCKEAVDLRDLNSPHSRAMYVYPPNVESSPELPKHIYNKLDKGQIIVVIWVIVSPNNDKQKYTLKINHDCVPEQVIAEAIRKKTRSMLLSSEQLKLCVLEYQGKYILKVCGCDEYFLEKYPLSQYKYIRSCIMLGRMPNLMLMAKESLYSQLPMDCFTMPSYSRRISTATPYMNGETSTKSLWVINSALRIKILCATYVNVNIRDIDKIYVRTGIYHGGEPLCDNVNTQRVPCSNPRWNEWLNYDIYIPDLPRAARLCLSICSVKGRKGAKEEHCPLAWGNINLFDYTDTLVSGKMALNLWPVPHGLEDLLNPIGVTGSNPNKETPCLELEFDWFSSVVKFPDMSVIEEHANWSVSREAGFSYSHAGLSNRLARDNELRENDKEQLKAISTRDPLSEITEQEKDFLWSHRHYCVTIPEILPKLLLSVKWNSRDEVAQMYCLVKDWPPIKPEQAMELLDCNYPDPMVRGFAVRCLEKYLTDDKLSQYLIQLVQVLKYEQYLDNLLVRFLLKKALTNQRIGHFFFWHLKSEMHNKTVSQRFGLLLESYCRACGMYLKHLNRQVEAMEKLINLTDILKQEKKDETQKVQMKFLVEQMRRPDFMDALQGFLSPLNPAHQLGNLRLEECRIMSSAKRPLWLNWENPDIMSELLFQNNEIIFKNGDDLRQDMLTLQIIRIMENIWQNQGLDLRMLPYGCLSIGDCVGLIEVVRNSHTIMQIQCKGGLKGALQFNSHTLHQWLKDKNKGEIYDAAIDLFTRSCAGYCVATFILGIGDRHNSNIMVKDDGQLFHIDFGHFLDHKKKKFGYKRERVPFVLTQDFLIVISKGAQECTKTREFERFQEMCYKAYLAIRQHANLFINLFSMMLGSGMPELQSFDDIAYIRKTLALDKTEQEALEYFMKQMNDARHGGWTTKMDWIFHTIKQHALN
T1 sequence (P27986 whole entry partner): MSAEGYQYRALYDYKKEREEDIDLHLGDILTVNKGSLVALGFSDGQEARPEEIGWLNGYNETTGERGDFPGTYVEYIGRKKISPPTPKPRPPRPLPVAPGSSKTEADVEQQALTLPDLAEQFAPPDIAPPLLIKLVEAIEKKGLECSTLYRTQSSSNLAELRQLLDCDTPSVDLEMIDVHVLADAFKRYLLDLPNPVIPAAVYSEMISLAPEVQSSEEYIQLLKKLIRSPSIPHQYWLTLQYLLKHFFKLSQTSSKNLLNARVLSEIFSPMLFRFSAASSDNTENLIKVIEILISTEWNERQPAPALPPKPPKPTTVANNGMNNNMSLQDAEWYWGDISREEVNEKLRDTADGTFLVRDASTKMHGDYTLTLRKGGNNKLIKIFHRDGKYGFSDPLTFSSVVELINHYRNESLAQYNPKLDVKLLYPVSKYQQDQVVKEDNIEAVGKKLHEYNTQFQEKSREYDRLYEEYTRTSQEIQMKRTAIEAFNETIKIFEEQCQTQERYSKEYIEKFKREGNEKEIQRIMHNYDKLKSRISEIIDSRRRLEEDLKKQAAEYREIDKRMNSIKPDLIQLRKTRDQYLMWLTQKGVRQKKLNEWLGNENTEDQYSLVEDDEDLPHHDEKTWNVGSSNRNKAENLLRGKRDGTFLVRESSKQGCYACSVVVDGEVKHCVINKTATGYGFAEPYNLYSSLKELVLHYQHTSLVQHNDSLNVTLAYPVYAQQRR

For orientation: IC50 means the concentration at which inhibition is half-maximal. A lower IC50 goes with higher potency. For the compound `Cc1cc(C(C)Nc2ccccc2C(=O)O)c2nc(C3CCN(C(=O)C4(N)CC4)CC3)cc(=O)n2c1` (centres unmarked) [Compound 524], the IC50 was more than 2 µM and the “T47D pAKT S473 HTRF IC50 (H1047R): T47D (H1047R) selectivity over SKBR3 (WT)” value is recorded as “C (C denotes ≤5-fold)”. Take `Cc1cc([C@@H](C)Nc2ccccc2C(=O)O)c2nc(C3CCN(C(=O)C4(N)CC4)CC3)cc(=O)n2c1` [Compound 525]: the IC50 is more than 2 µM and the “T47D pAKT S473 HTRF IC50 (H1047R): T47D (H1047R) selectivity over SKBR3 (WT)” value is “C (C denotes ≤5-fold)”.

As to `Cc1cc([C@H](C)Nc2ccccc2C(=O)O)c2nc(C3CCN(C(=O)C4(N)CC4)CC3)cc(=O)n2c1` [Compound 526], the half-maximal inhibitory concentration (IC50) is more than 2 µM and the “T47D pAKT S473 HTRF IC50 (H1047R): T47D (H1047R) selectivity over SKBR3 (WT)” value was “C (C denotes ≤5-fold)”.

In the case of `Cc1cc(C(C)Nc2ccccc2C(=O)O)c2nc(N3CCN(C(=O)CN)CC3)cc(=O)n2c1` (centres unmarked) [Compound 527], the 50% inhibitory concentration (IC50) is more than 2 µM and the “T47D pAKT S473 HTRF IC50 (H1047R): T47D (H1047R) selectivity over SKBR3 (WT)” value was “C (C denotes ≤5-fold)”.

As for `Cc1cc([C@H](C)Nc2ccccc2C(=O)O)c2nc(N3CCN(C(=O)CN)CC3)cc(=O)n2c1` [Compound 528], the 50% inhibitory concentration (IC50) is more than 2 µM and the “T47D pAKT S473 HTRF IC50 (H1047R): T47D (H1047R) selectivity over SKBR3 (WT)” value is “C (C denotes ≤5-fold)”. The corresponding values for `Cc1cc(C(C)Nc2ccccc2C(=O)O)c2nc(N3CCN(C(=O)CCN)CC3)cc(=O)n2c1` (centres unmarked) [Compound 529] are more than 2 µM and “C (C denotes ≤5-fold)”. The corresponding values for `Cc1cc(C(C)Nc2ccccc2C(=O)O)c2nc(N3CCN(CCC(N)=O)CC3)cc(=O)n2c1` (centres unmarked) [Compound 530] are more than 2 µM and “C (C denotes ≤5-fold)”. The corresponding values for `Cc1cc([C@@H](C)Nc2ccccc2C(=O)O)c2nc([C@H]3CCOC3)cc(=O)n2c1` [Compound 537] are 0.5 to 2 µM and “B (B denotes 20-fold≥value>5-fold)”.

As to `Cc1cc([C@@H](C)Nc2ccccc2C(=O)O)c2nc([C@@H]3CCOC3)cc(=O)n2c1` [Compound 538], the IC50 is more than 2 µM and the “T47D pAKT S473 HTRF IC50 (H1047R): T47D (H1047R) selectivity over SKBR3 (WT)” value is on record as “C (C denotes ≤5-fold)”. As for `Cc1cc([C@H](C)Nc2ccccc2C(=O)O)c2nc([C@H]3CCOC3)cc(=O)n2c1` [Compound 539], the half-maximal inhibitory concentration (IC50) lay in the range of 0.5 to 2 µM and the “T47D pAKT S473 HTRF IC50 (H1047R): T47D (H1047R) selectivity over SKBR3 (WT)” value is reported as “B (B denotes 20-fold≥value>5-fold)”. The corresponding values for `Cc1cc([C@@H](C)Nc2ccccc2C(=O)O)c2nc(-c3ccc4[nH]c(=O)oc4c3)cc(=O)n2c1` [Compound 541] are 0.1 to 0.5 µM and “A (A denotes >20-fold)”.

Take `Cc1cc([C@H](C)Nc2ccccc2C(=O)O)c2nc(-c3ccc4[nH]c(=O)oc4c3)cc(=O)n2c1` [Compound 542]: the 50% inhibitory concentration (IC50) was more than 2 µM and the “T47D pAKT S473 HTRF IC50 (H1047R): T47D (H1047R) selectivity over SKBR3 (WT)” value is “C (C denotes ≤5-fold)”.

As to `Cc1cc(C(C)Nc2ccccc2C(=O)O)c2nc(C3CCC(NS(C)(=O)=O)CC3)c(C)c(=O)n2c1` (centres unmarked) [Compound 543], the 50% inhibitory concentration (IC50) is more than 2 µM and the “T47D pAKT S473 HTRF IC50 (H1047R): T47D (H1047R) selectivity over SKBR3 (WT)” value is “C (C denotes ≤5-fold)”. On to `Cc1cc(C(C)Nc2ccccc2C(=O)O)c2nc(C3CCC(NS(C)(=O)=O)CC3)c(C)c(=O)n2c1` (centres unmarked) [Compound 544], for which the concentration for half-maximal inhibition (IC50) was more than 2 µM and the “T47D pAKT S473 HTRF IC50 (H1047R): T47D (H1047R) selectivity over SKBR3 (WT)” value is given as “C (C denotes ≤5-fold)”. For the compound `Cc1cc([C@@H](C)Nc2ccccc2C(=O)O)c2nc(Nc3ccc4[nH]c(=O)oc4c3)cc(=O)n2c1` [Compound 546], the IC50 is more than 2 µM and the “T47D pAKT S473 HTRF IC50 (H1047R): T47D (H1047R) selectivity over SKBR3 (WT)” value is reported as “C (C denotes ≤5-fold)”. On the same counts, the results for `Cc1cc([C@H](C)Nc2ccccc2C(=O)O)c2nc(Nc3ccc4[nH]c(=O)oc4c3)cc(=O)n2c1` [Compound 547] are more than 2 µM and “C (C denotes ≤5-fold)”. On the same counts, the results for `Cc1cc(C(C)Nc2ccccc2C(=O)O)c2nc(Nc3ccc4[nH]c(=O)oc4c3)cc(=O)n2c1` (centres unmarked) [Compound 548] are more than 2 µM and “C (C denotes ≤5-fold)”. On the same counts, the results for `Cc1cc(C(C)Nc2ccccc2C(=O)O)c2nc(N3CCN(CCC(N)=O)CC3)cc(=O)n2c1` (centres unmarked) [Compound 550] are more than 2 µM and “C (C denotes ≤5-fold)”. `Cc1cc(C(C)Nc2ccccc2C(=O)O)c2nc(N3CCN(CCC(N)=O)CC3)cc(=O)n2c1` (centres unmarked) [Compound 551]: the concentration for half-maximal inhibition (IC50) is more than 2 µM and the “T47D pAKT S473 HTRF IC50 (H1047R): T47D (H1047R) selectivity over SKBR3 (WT)” value is “C (C denotes ≤5-fold)”. Regarding `C=C(C)C1CCCC(c2cc(=O)n3cc(C)cc([C@@H](C)Nc4ccccc4C(=O)O)c3n2)CC1` (some centres unmarked) [Compound 552], the “T47D pAKT S473 HTRF IC50 (H1047R): T47D (H1047R) selectivity over SKBR3 (WT)” value was “C (C denotes ≤5-fold)”.

For `Cc1cc(C(C)Nc2ccccc2C(=O)O)c2nc(N3CCN(C(C)(C)C(N)=O)CC3)cc(=O)n2c1` (centres unmarked) [Compound 554], the IC50 was more than 2 µM and the “T47D pAKT S473 HTRF IC50 (H1047R): T47D (H1047R) selectivity over SKBR3 (WT)” value is “C (C denotes ≤5-fold)”. Take `Cc1cc([C@@H](C)Oc2ccccc2C(N)=O)c2nc(N3CCOCC3)cc(=O)n2c1` [Compound 562]: the IC50 is more than 2 µM and the “T47D pAKT S473 HTRF IC50 (H1047R): T47D (H1047R) selectivity over SKBR3 (WT)” value is on record as “C (C denotes ≤5-fold)”. For the compound `Cc1cc([C@@H](C)Nc2cccc3[nH]c(=O)oc23)c2nc(N3CCOCC3)cc(=O)n2c1` [Compound 565], the IC50 is more than 2 µM and the “T47D pAKT S473 HTRF IC50 (H1047R): T47D (H1047R) selectivity over SKBR3 (WT)” value is listed as “C (C denotes ≤5-fold)”.

As for `Cc1cc([C@H](C)Nc2cccc3[nH]c(=O)oc23)c2nc(N3CCOCC3)cc(=O)n2c1` [Compound 566], the IC50 is more than 2 µM and the “T47D pAKT S473 HTRF IC50 (H1047R): T47D (H1047R) selectivity over SKBR3 (WT)” value is on record as “C (C denotes ≤5-fold)”. On the same counts, the results for `Cc1cc(C(C)Nc2ccccc2S(N)(=O)=O)c2nc(-c3cc(C)c4oc(=O)[nH]c4c3)cc(=O)n2c1` (centres unmarked) [Compound 570] are 0.1 to 0.5 µM and “A (A denotes >20-fold)”. On the same counts, the results for `Cc1cc(C(C)Nc2ccccc2S(N)(=O)=O)c2nc(-c3cc(C)c4oc(=O)[nH]c4c3)cc(=O)n2c1` (centres unmarked) [Compound 571] are more than 2 µM and “C (C denotes ≤5-fold)”. The corresponding values for `Cc1cc([C@H](C)Nc2ccccc2C(=O)O)c2nc(Nc3ccc4[nH]c(=O)[nH]c4c3)cc(=O)n2c1` [Compound 574] are more than 2 µM and “C (C denotes ≤5-fold)”. As for `Cc1cc([C@@H](C)Nc2ccccc2C(=O)O)c2nc(-c3ccc4c(c3)NC(=O)C4)cc(=O)n2c1` [Compound 575], the IC50 lay in the range of 0.1 to 0.5 µM and the “T47D pAKT S473 HTRF IC50 (H1047R): T47D (H1047R) selectivity over SKBR3 (WT)” value is given as “A (A denotes >20-fold)”. On the same counts, the results for `Cc1cc([C@H](C)Nc2ccccc2C(=O)O)c2nc(-c3ccc4c(c3)NC(=O)C4)cc(=O)n2c1` [Compound 576] are more than 2 µM and “C (C denotes ≤5-fold)”.

As for `CNC1=NC2C=C(c3cc(=O)n4cc(C)cc(C(C)Nc5ccccc5C(=O)O)c4n3)C=CC2=C1` (centres unmarked) [Compound 577], the IC50 lay in the range of 0.1 to 0.5 µM and the “T47D pAKT S473 HTRF IC50 (H1047R): T47D (H1047R) selectivity over SKBR3 (WT)” value is recorded as “A (A denotes >20-fold)”.
